Like-named read-outs stand apart in the source and are kept apart here.
Key:
[1] = tested on: ischemic reperfusion injury of myocardium; assay: Ischemic reperfusion injury of myocardium in rats, iv; type: in vivo, SD rats; conditions: for CK / LDH: serum
Description: Administration was performed by femoral intravenous injection.
(1) Method of operation and ligation of coronary artery: Male SD rats were anesthetized with pentobarbital sodium (45 mg/kg) and immobilized on their backs for records of II lead ECG with an electrocardiograph (ECG-6851C, manufactured by Shanghai Photoelectrical Medical Electronic Apparatus Co., Ltd.). Tracheas were intubated and connected to a breathing apparatus. Thoracotomy was performed at intercostal space on left chest for cutting down fourth/fifth rib and opening cardiac pericardium to expose the heart. A 0/3 suture line was passed underneath the left branch of anterior descending coronary artery. After 10 minutes of stabilization (those with abnormal ECG after stabilization were abandoned). With two thrums passing through a small piece of fine silicone tube, a ligature was made on another small piece of fine silicone tube for ischemic ligation (those with no changes in ST segment and T-wave were excluded). After 10 minutes of ligation, drugs were injected slowly through femoral veins. 40 minutes later, the lines for ligation were cut off to reperfuse the anterior descending branch for 30 minutes.
(2) Detection of lactate dehydrogenase (LDH) and creatine kinase (CK): After completion of reperfusion, blood was sampled from abdominal aorta to determine serum activity of LDH and CK with ultraviolet spectrometry.
(3) Measurement of the area of myocardial infarction: With same thickness, 5 slices of ventricular myocardium were cut off from the part under the line of coronary ligation and in parallel to atrioventricular furrow and put into staining solution of nitroblue tetrazolium (N-BT) for 15 min of shaking dyeing. Normal myocardium would be dyed to lasureous color, while the infarct part of myocardium would not be dyed and remain pale-yellow. Under a microscopy, the infarct part was separated and weighed, and the percentage (%) of the weight of infarct part to the weight of total myocardium was adopted as the index for area of myocardial infarction.
(4) Data and statistic treatment: Data in all groups were presented with x±s and analysis of variance was adopted to check their significance.

[2] = tested on: myocardial infarction induced by ligation of coronary artery; assay: Canine model of myocardial infarction induced by ligation of coronary artery, iv; type: in vivo, dogs; conditions: for sum of ST (ΣST) segment elevation, x ± s: 0 min before, c3-c8 5,15,30,60,90,120 min after administration; for IZ/LV / IZ/WT: N-BT staining; for CK after administration / CK before administration / LDH after administration / LDH before administration: serum
Description: Drugs were medicated with intravenous injection. The volume of the drug administered was the same as that of normal saline for the animal model group of ischemic reperfusion with administrative volume of 2 ml/kg.
After weighing, the animals were anesthetised with pentobarbital sodium iv at the dose of 30 mg/kg. Tracheal intubation was performed and SC-M5 anesthesia respirator (manufactured by Shanghai Medical Instrument Factory) was connected for mechanical ventilation (16˜18 per min with tidal volume of 350˜550 ml) after thoracotomy at the fourth intercostal space of left sternal border. With exposure of the heart, the pericardium was cut open to make pericardium hammock. The coronary artery was dissociated from between the first and second branches of left anterior descending coronary artery, underneath which passed through silk threads for two-step ligation. On surface of heart were placed 30-point epicardial leads, to which four limbs were connected through needle-electrodes, which in turn were connected to Powerlab/8s (AD Instruments) with a multichannel switcher. Harris Two-step Ligation was performed. Two minutes before first ligation, 5 mg/kg lidocaine was given by femoral intravenous injection to prevent arrhythmia. While performing ligation, a steel wire of 1 mm in diameter was inserted into the first knot so as to be ligated together with the coronary artery. Afterward, the steel-wire was pulled out and then 30 min later, the second knot was made to complete the ligation.
The epicardial electrogram 10 min after completing the ligation was recorded as the control value before drug administration. Later, test drug was given by femoral intravenous injection while the negative control group was given solvent of same volume. Constant dripping was completed within 30 min for all groups with a constant flow pump (SH-88AB Controllable Intravenous Injector made by Quanzhou Lizhong Electronic Medical Instrument Factory). After completion of the constant dripping, changes of epcardial electrogram at 5, 15, 30, 60, 90 and 120 min after administration were recorded respectively. The number of ST segment elevation or depression to more than 2 mV and sum of total value ST segment elevation (ΣST) were applied as the indexes for observation of changes of epcardial electrogram and to calculate the percentage of the weight of infarct area to the weight of whole heart or to the weight of left ventricle. 3 ml of blood from right ventricle was sampled before ligation and 2 hrs after administration. After centrifuged at 3000 rpm for 15 min, serum was taken to detect lactate dehydrogenase (LDH) and serum creatine kinase (CK). Method according to instruction of the LDH and CK Assay kit (batch no: 20020523, Nanjing Jiancheng Bioengineering Institute) (ENR: U90625, Randox Company, UK) was adopted for detection. The performance was with a ultraviolet/visible range spectrophotometer of UV751GD type (Shanghai analytical apparatus Factory).

platelet aggregation = conditions: 6~100 μmol/L TSG; cited from earlier work
[3] = tested on: isolated carotid and pulmonary arteries; conditions: cited from earlier work
vascular smooth muscle = conditions: 0.02 mM~2 mM; cited from earlier work

Substance: 3,4′,5-trihydroxy-stilbene-3-β-D-glucoside [TSG]
- Infarct area percentage ([1]; high dose 30.0 mg/kg iv): 23.71 ± 3.66 %
- CK ([1]; high dose 30.0 mg/kg iv): 559.4 ± 72.9 IU/L
- LDH ([1]; high dose 30.0 mg/kg iv): 744.0 ± 149.2 IU/L
- Infarct area percentage ([1]; low dose 7.5 mg/kg iv): 27.57 ± 5.33 %
- CK ([1]; low dose 7.5 mg/kg iv): 710.7 ± 106.8 IU/L
- LDH ([1]; low dose 7.5 mg/kg iv): 857.7 ± 124.0 IU/L
- Infarct area percentage ([1]; middle dose 15.0 mg/kg iv): 24.80 ± 3.32 %
- CK ([1]; middle dose 15.0 mg/kg iv): 630.6 ± 108.6 IU/L
- LDH ([1]; middle dose 15.0 mg/kg iv): 809.4 ± 128.4 IU/L
- CK B/A ([2]; TSG 2.5 mg/kg): 2.54 ± 0.27
- LDH B/A ([2]; TSG 2.5 mg/kg): 2.28 ± 0.21
- sum of ST (ΣST) segment elevation, x ± s ([2]; TSG 2.5 mg/kg iv, 0 min before administration): 154.5 ± 60.4 mV
- sum of ST (ΣST) segment elevation, x ± s ([2]; TSG 2.5 mg/kg iv, 5 min after administration): 154.7 ± 55.0 mV
- sum of ST (ΣST) segment elevation, x ± s ([2]; TSG 2.5 mg/kg iv, 30 min after administration): 129.2 ± 57.7 mV
- sum of ST (ΣST) segment elevation, x ± s ([2]; TSG 2.5 mg/kg iv, 60 min after administration): 122.7 ± 59.6 mV
- sum of ST (ΣST) segment elevation, x ± s ([2]; TSG 2.5 mg/kg iv, 90 min after administration): 128.3 ± 55.1 mV
- IZ/LV ([2]; TSG 2.5 mg/kg): 21.68 ± 1.88 %
- IZ/WT ([2]; TSG 2.5 mg/kg): 11.70 ± 0.93 %
- CK after administration ([2]; TSG 2.5 mg/kg): 446.6 ± 39.4 IU/L
- CK before administration ([2]; TSG 2.5 mg/kg): 176.7 ± 18.8 IU/L
- LDH after administration ([2]; TSG 2.5 mg/kg): 823.3 ± 186.3 IU/L
- LDH before administration ([2]; TSG 2.5 mg/kg): 359.7 ± 70.5 IU/L
- CK B/A ([2]; TSG 5.0 mg/kg): 1.98 ± 0.38
- LDH B/A ([2]; TSG 5.0 mg/kg): 2.09 ± 0.16
- sum of ST (ΣST) segment elevation, x ± s ([2]; TSG 5.0 mg/kg iv, 0 min before administration): 153.8 ± 50.7 mV
- sum of ST (ΣST) segment elevation, x ± s ([2]; TSG 5.0 mg/kg iv, 5 min after administration): 148.0 ± 39.9 mV
- sum of ST (ΣST) segment elevation, x ± s ([2]; TSG 5.0 mg/kg iv, 30 min after administration): 116.2 ± 53.7 mV
- sum of ST (ΣST) segment elevation, x ± s ([2]; TSG 5.0 mg/kg iv, 60 min after administration): 105.3 ± 53.6 mV
- sum of ST (ΣST) segment elevation, x ± s ([2]; TSG 5.0 mg/kg iv, 90 min after administration): 103.8 ± 54.1 mV
- IZ/LV ([2]; TSG 5.0 mg/kg): 15.25 ± 1.41 %
- IZ/WT ([2]; TSG 5.0 mg/kg): 9.03 ± 1.16 %
- CK after administration ([2]; TSG 5.0 mg/kg): 356.2 ± 64.8 IU/L
- CK before administration ([2]; TSG 5.0 mg/kg): 180.8 ± 13.2 IU/L
- LDH after administration ([2]; TSG 5.0 mg/kg): 587.1 ± 170.6 IU/L
- LDH before administration ([2]; TSG 5.0 mg/kg): 281.2 ± 80.9 IU/L
- CK B/A ([2]; TSG 10 mg/kg): 1.74 ± 0.37
- LDH B/A ([2]; TSG 10 mg/kg): 1.99 ± 0.14
- sum of ST (ΣST) segment elevation, x ± s ([2]; TSG 10 mg/kg iv, 0 min before administration): 155.0 ± 46.4 mV
- sum of ST (ΣST) segment elevation, x ± s ([2]; TSG 10 mg/kg iv, 5 min after administration): 151.7 ± 35.6 mV
- sum of ST (ΣST) segment elevation, x ± s ([2]; TSG 10 mg/kg iv, 30 min after administration): 115.2 ± 50.9 mV
- sum of ST (ΣST) segment elevation, x ± s ([2]; TSG 10 mg/kg iv, 60 min after administration): 104.7 ± 45.5 mV
- sum of ST (ΣST) segment elevation, x ± s ([2]; TSG 10 mg/kg iv, 90 min after administration): 102.0 ± 51.8 mV
- IZ/LV ([2]; TSG 10 mg/kg): 13.92 ± 1.32 %
- IZ/WT ([2]; TSG 10 mg/kg): 8.65 ± 1.11 %
- CK after administration ([2]; TSG 10 mg/kg): 299.5 ± 63.9 IU/L
- CK before administration ([2]; TSG 10 mg/kg): 172.7 ± 11.1 IU/L
- LDH after administration ([2]; TSG 10 mg/kg): 551.6 ± 131.3 IU/L
- LDH before administration ([2]; TSG 10 mg/kg): 279.3 ± 70.8 IU/L
- platelet aggregation and production of thromboxane B2 induced by arachidonic acid, adenosine diphosphate and adrenalin (platelet aggregation): inhibited
- effect on vasoconstriction of noadrenalin ([3]; 1.37 mM): no noticeable effect
- effect on vasoconstriction of noadrenalin ([3]; 1.71 mM): antagonistic effect
- effect on isolated carotid and pulmonary arteries ([3]; 3.28 mM): no noticeable effect
- effect on isolated carotid and pulmonary arteries ([3]; 5.12 mM): may relax
- intracellular calcium concentration in vascular smooth muscle (vascular smooth muscle): increase intracellular calcium concentration in vascular smooth muscle remarkably
